This is an account of results in patent US10966961B2, “Pyrazole derivatives as bromodomain inhibitors” (GLAXOSMITHKLINE INTELLECTUAL PROPERTY (NO.2) LIMITED, priority 2017, dated 2021).

Bounds are passed on as bounds.

The target in the first test is T1, BRD4 BD2 (Homo sapiens, UniProt O60885, Y97A).
T1 construct: BRD4 (1-477) (Y97A) and (Y390A); made in house; host or cells: E. coli (pET15b vector)
Nature of the test: BRD4 BD2 TR-FRET competition assay. Conditions: BRD4 BD2 TR-FRET; read-out: pIC50 in the BRD4 BD2 assay (converted). The test is classed as binding. The method, then:
Time Resolved Fluorescence Resonance Energy Transfer (TR-FRET) assay
Bromodomain binding was assessed utilising a time resolved fluorescent resonance energy transfer (TR-FRET) competition assay. To enable this approach a known, high affinity, pan-BET interacting small molecule was labelled with Alexa Fluor® 647, which is a far-red-fluorescent dye (Reference Compound X). Reference Compound X acts as a reporter of bromodomain binding and is the acceptor fluorophore component of the TR-FRET pair. Europium chelate, conjugated to an anti-6*His antibody, was utilised as the donor fluorophore in the TR-FRET pair. […] A TR-FRET signal is generated when the donor and acceptor fluorophores are in close proximity, between 20-80 Å, which is enabled in this assay by binding of Reference Compound X to the bromodomain protein.
Assay Principle: In order to generate a TR-FRET signal, donor fluorophore is excited by a laser at A337 nm, which subsequently leads to emission at λ618 nm. If the acceptor fluorophore is in close proximity then energy transfer can occur, which leads to emission of Alexa Fluor® 647 at λ665 nm. In the presence of competitor compound, Reference Compound X can be displaced from binding to the bromodomain. If displacement occurs, the acceptor fluorophore is no longer in proximity to the donor fluorophore, which prevents fluorescent energy transfer and, subsequently, a loss of Alexa Fluor® 647 emission at λ665 nm.
(§1) The competition of the compounds of formula (I) with Reference Compound X for binding to the BET family (BRD2, BRD3, BRD4 and BRDT) was assessed using protein truncates spanning both bromodomain 1 (BD1) and bromodomain 2 (BD2). In order to monitor differential binding to either BD1 or BD2, single residue mutations of key tyrosines to alanine were made in the acetyl lysine binding pockets. To validate this approach, a double residue mutant tandem domain protein was produced for each of the BET family members. Utilising a Fluorescence Polarisation approach, binding affinities for each of the single and double mutants for Reference Compound X were determined.
Final purification was completed by Superdex 200 prep grade size exclusion column. Purified protein was stored at −80° C. in 20 mM HEPES pH 7.5 and 100 mM NaCl. […] Protocol for Bromodomain BRD2, 3, 4 and T, BD1+BD2 mutant TR-FRET competition assays:
All assay components were dissolved in an assay buffer composing of 50 mM HEPES pH7.4, 50 mM NaCl, 5% Glycerol, 1 mM DTT and 1 mM CHAPS. Reference Compound X was diluted, in assay buffer containing 20 nM single mutant, tandem bromodomain protein, to a concentration equivalent to 2*Kd for this bromodomain. The solution containing bromodomain and Reference Compound X was added to dose response dilutions of test compound or DMSO vehicle (a maximum of 0.5% DMSO is used in this assay) in Greiner 384 well black low volume microtitre plates and subsequently incubated for 30 minutes at rt. An equal volume of 3 nM of anti-6*His Europium chelate was added to all wells, followed by a further 30 minute incubation at rt. TR-FRET was detected using a Perkin Elmer Multimode plate reader, by exciting the donor fluorophore at λ337 nm and subsequently, after a delay of 50 μsecs, measuring emission of the donor and acceptor fluorophores at λ615 nm and λ665 nm, respectively. In order to control these assays, 16 replicates each of uninhibited (DMSO vehicle) and inhibited (10*IC50 concentrations of Example 11 of WO 2011/054846A1) TR-FRET assays were included on every microtitre plate.
cA four parameter curve fit of the following form was then applied: y=a+((b−a)/(1+(10^x/10^c)^d)
Where ‘a’ is the minimum, ‘H’ is the Hill slope, ‘c’ is the pIC50 and ‘d’ is the maximum.
All compounds (Examples) were each tested in the BRD4 BD1 and the BRD4 BD2 TR-FRET assays essentially as described above. Those of skill in the art will recognise that in vitro binding assays and cell-based assays for functional activity are subject to experimental variability.
Consider `CNC(=O)c1cc(C(=O)NC2CC2)nn1Cc1ccc2[nH]ccc2c1` [Example 233], for which the IC50 is 1 to 10 µM.

In the case of `CNC(=O)c1cc(C(=O)NC2[C@H]3C[C@H](O)C[C@@H]23)n([C@H](C)c2cccc(C(F)(F)F)c2)n1` (stereo partly drawn) [Example 241], the IC50 is 1 to 10 µM.

Take `CNC(=O)c1cc(C(=O)NC(C)C)n(Cc2ccccc2)n1` [Example 96, 1-Benzyl-N^5-isopropyl-N^3-methyl-1H-pyrazole-3,5-dicarboxamide]: the IC50 is 1 to 10 µM.

For `CNC(=O)c1cc(C(=O)N[C@@H]2C[C@@H](C)[C@H](O)[C@@H](C)C2)n([C@@H](C)c2ccccc2)n1` [Example 236], the IC50 was 1 to 10 µM.

Turning to `CNC(=O)c1cc(C(=O)N[C@H]2[C@@H]3COC[C@@H]32)n([C@H](C)c2cccc3[nH]ccc23)n1` [Example 132, 1-((R)-1-(1H-Indol-4-yl)ethyl)-N^5-((1R,5S,6r)-3-oxabicyclo[3.1.0]hexan-6-yl)-N^3-methyl-1H-pyrazole-3,5-dicarboxamide], the IC50 is 1 to 10 µM.

For the compound `CNC(=O)c1cc(C(=O)Nc2nnc(C(F)(F)F)s2)n([C@@H](C)c2ccccc2)n1` [Example 240], the IC50 is 1 to 10 µM.

On to `CNC(=O)c1cc(C(=O)N[C@H]2[C@@H]3COC[C@@H]32)n([C@H](C)c2ccccc2)n1` [Example 109, N^5-((1R,5S,6r)-3-Oxabicyclo[3.1.0]hexan-6-yl)-N^3-methyl-1-((R)-1-phenylethyl)-1H-pyrazole-3,5-dicarboxamide], for which the IC50 was 1 to 10 µM.

Take `CNC(=O)c1cc(C(=O)N[C@H]2C[C@@H]2C)n(C(C)c2ccnc3c2ccn3S(=O)(=O)c2ccc(C)cc2)n1` (stereo partly drawn) [Example 135, N^3-Methyl-N^5-((1S,2S)-2-methylcyclopropyl)-1-(1-(1-tosyl-1H-pyrrolo[2,3-b]pyridin-4-yl)ethyl)-1H-pyrazole-3,5-dicarboxamide]: the IC50 was 1 to 10 µM.

Regarding `CNC(=O)c1cc(C(=O)N[C@H]2C[C@@H]2C)n([C@H](C)c2ccnc3[nH]ccc23)n1` [Example 137, 1-((R)-1-(1H-Pyrrolo[2,3-b]pyridin-4-yl)ethyl)-N^3-methyl-N^5-((1S,2S)-2-methylcyclopropyl)-1H-pyrazole-3,5-dicarboxamide], the IC50 is 1 to 10 µM.

In the case of `CNC(=O)c1cc(C(=O)N[C@H]2[C@@H]3C[C@H](O)C[C@@H]32)n([C@H](C)c2cccc(C(F)(F)F)c2)n1` [Example 238], the IC50 was 1 to 10 µM.

For the compound `CNC(=O)c1cc(C(=O)N[C@H]2[C@@H]3COC[C@@H]32)n([C@@H](C)c2ccccc2)n1` [Example 1, N^5-((1R,5S,6r)-3-Oxabicyclo[3.1.0]hexan-6-yl)-N^3-methyl-1-((S)-1-phenylethyl)-1H-pyrazole-3,5-dicarboxamide], the IC50 is 0.0631 µM.

`CNC(=O)c1cc(C(=O)NC(C)(C)C)n([C@@H](C)c2ccccc2)n1` [Example 112, (S)-N^5-(tert-Butyl)-N^3-methyl-1-(1-phenylethyl)-1H-pyrazole-3,5-dicarboxamide]: the IC50 was 1 to 10 µM.

For `CNC(=O)c1cc(C(=O)Nc2c(C)noc2C)n([C@@H](C)c2ccccc2)n1` [Example 248], the IC50 was 1 to 10 µM.

Turning to `CNC(=O)c1cc(C(=O)N[C@H]2[C@@H]3COC[C@@H]32)n([C@@H](C)c2ccccc2OC)n1` [Example 136, N^5-((1R,5S,6r)-3-Oxabicyclo[3.1.0]hexan-6-yl)-1-((S)-1-(2-methoxyphenyl)ethyl)-N^3-methyl-1H-pyrazole-3,5-dicarboxamide], the IC50 is 1 to 10 µM.

As to `CNC(=O)c1cc(C(=O)N[C@H]2[C@@H]3C[C@@H](O)C[C@@H]32)n([C@H](C)c2ccc(C(F)(F)F)cc2)n1` [Example 229], the IC50 is 1 to 10 µM.

With `CCNC(=O)c1cc(C(=O)N[C@H]2CC[C@H](O)CC2)n([C@@H](C)c2ccccc2)n1` [Example 108, N^3-Ethyl-N^5-((1r,4S)-4-hydroxycyclohexyl)-1-((S)-1-phenylethyl)-1H-pyrazole-3,5-dicarboxamide], the IC50 is 1 to 10 µM.

Consider `CNC(=O)c1cc(C(=O)NC2CC2)n(Cc2ccccc2OC)n1` [Example 106, N^5-Cyclopropyl-1-(2-methoxybenzyl)-N^3-methyl-1H-pyrazole-3,5-dicarboxamide], for which the IC50 is 1 to 10 µM.

Take `CNC(=O)c1cc(C(=O)NC2CC2)n(Cc2ccc(C#N)cc2)n1` [Example 102, 1-(4-Cyanobenzyl)-N^5-cyclopropyl-N^3-methyl-1H-pyrazole-3,5-dicarboxamide]: the IC50 is 1 to 10 µM.

On to `CNC(=O)c1cc(C(=O)NC)n(Cc2ccccc2)n1` [Example 94, 1-Benzyl-N^3,N^5-dimethyl-1H-pyrazole-3,5-dicarboxamide], for which the IC50 is 1 to 10 µM.

Turning to `CNC(=O)c1cc(C(=O)N[C@H]2[C@@H]3COC[C@@H]32)n([C@H](C)c2ccc(Cl)c(F)c2)n1` [Example 237], the IC50 is 1 to 10 µM.

Turning to `CNC(=O)c1cc(C(=O)Nc2onc(C)c2C#N)n([C@@H](C)c2ccccc2)n1` [Example 239], the IC50 is 1 to 10 µM.

Consider `CNC(=O)c1cc(C(=O)NC2CC2)nn1Cc1cccc2[nH]ccc12` [Example 234], for which the IC50 is 1 to 10 µM.

Still in this test, the particulars now being: BRD4 BD2 pIC50 − BRD4 BD1 pIC50; in at least one of the TR-FRET assays.
As for `CNC(=O)c1cc(C(=O)N[C@H]2[C@@H]3COC[C@@H]32)n([C@@H](C)c2ccccc2)n1` [Example 1, N^5-((1R,5S,6r)-3-Oxabicyclo[3.1.0]hexan-6-yl)-N^3-methyl-1-((S)-1-phenylethyl)-1H-pyrazole-3,5-dicarboxamide], the “selectivity for BRD4 BD2 over BRD4 BD1” value was 2.8 log units.

A further test deals with double residue mutant tandem domain BET proteins (BRD2, BRD3, BRD4 and BRDT). Nature of the test: Fluorescence Polarisation binding of Reference Compound X to mutant tandem BET proteins. On the set-up: species or system Human. Conditions: double mutant vs non mutated tandem BET proteins. How it is done:
as §1, with “determined. […] The affinities of the single mutated bromdomain tandem proteins for Reference Compound X were equi-potent with the corresponding non-mutated BET protein. […] In the TR-FRET competition assay, Reference Compound X is used at a concentration that is equivalent to the Kd for the non-mutated bromodomain, which ensures that no binding at the mutated bromodomain is detected. […]” for “determined.”
For orientation: In fluorescence polarisation assays a small probe gives low polarisation when free and higher when bound to something large.
As to `COc1ccc2c(c1)C(c1ccc(Cl)cc1)=N[C@@H](CC(=O)NCCCCCNC(=O)CCCCCC1(C)/C(=C/C=C/C=C/C3=[N+](CCCCS(=O)(=O)O)c4ccc(S(=O)(=O)O)cc4C3(C)C)N(CCCCS(=O)(=O)[O-])c3ccc(S(=O)(=O)O)cc31)c1nnc(C)n1-2` (stereo partly drawn) [Reference Compound X], the “reduction in Kd (affinity) of double mutant tandem proteins versus wild type tandem BET proteins” value is greater than 1000 fold.
